Some results are limits rather than exact numbers.

A word on the EC50: it is the concentration that produces a half-maximal response. By CC50 is commonly meant the concentration giving 50% cytotoxicity. A low value points to harm at low concentration.

The subject of assay [1] is SDMA signal (PRMT5 inhibition) in HCT116 MTAP-deleted cells. Put plainly: Symmetric di-methyl arginine image-based high content screen assay (SDMA assay), HCT116 MTAP-deleted. Particulars: SDMA assay; for EC50: Homo sapiens, HCT-116, 72 h, 3 days of treatment, cell line not given, taken as HCT116 MTAP-deleted, read-out: EC50 (SDMA assay); for EC50 selectivity (SDMA assay): taken as HCT116 WT versus MTAP-deleted. Type of assay: cell-based. The method in brief: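 HCT116 MTAP-deleted cells treated with compound until Day 3, then formalin-fixed, permeabilized and immunostained for SDMA, with DAPI nuclear counterstain. Imaged by high-content microscopy; SDMA read-out is mean Alexa 488 intensity per DAPI-defined cell, reflecting PRMT5 inhibition.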

Assay [2] relates to HCT116 MTAP-deleted cells. Nature of the assay: Cell viability assay (CellTiter-Glo, 7 days), HCT116 MTAP-deleted. As to conditions: Homo sapiens, HCT-116, 168 h. Background: ATP-based viability assays read luminescence as a measure of living cells.

Take `Cn1ncc2c(N)nc3ccc(C(=O)N(Cc4ccccc4F)N4CCCC4=O)cc3c21` [Example 56, 4-amino-N-(2-fluorobenzyl)-1-methyl-N-(2-oxopyrrolidin-1-yl)-1H-pyrazolo[4,3-c]quinoline-8-carboxamide]: in assay [1], the EC50 was less than 1 nM and the “EC50 selectivity (SDMA assay)” value is given as 195. In addition, the CC50 in assay [2] is less than 100 nM.
In the case of `Cn1ncc2c(N)nc3cc(F)c(C(=O)N(Cc4ccc(C(F)(F)F)nc4)N4CCCC4=O)cc3c21` [Example 57, 4-amino-7-fluoro-1-methyl-N-(2-oxopyrrolidin-1-yl)-N-((6-(trifluoromethyl)pyridin-3-yl)methyl)-1H-pyrazolo[4,3-c]quinoline-8-carboxamide], in assay [1], the EC50 is 1 to 5 nM and the “EC50 selectivity (SDMA assay)” value is 108. The molecule also gave a CC50 in assay [2] of less than 100 nM.
The like results for `CN1CCN(N(Cc2ccc(C(F)(F)F)cn2)C(=O)c2ccc3nc(N)c4cnn(C)c4c3c2)CC1` [Example 58, 4-amino-1-methyl-N-(4-methylpiperazin-1-yl)-N-((5-(trifluoromethyl)pyridin-2-yl)methyl)-1H-pyrazolo[4,3-c]quinoline-8-carboxamide] were, in that order, 1 to 5 nM, 126 and 100 to 1000 nM.
For `CN1CCN(N(Cc2ccc(C(F)(F)F)cn2)C(=O)c2cc3c(cc2F)nc(N)c2cnn(C)c23)CC1` [Example 59, 4-amino-7-fluoro-1-methyl-N-(4-methylpiperazin-1-yl)-N-((5-(trifluoromethyl)pyridin-2-yl)methyl)-1H-pyrazolo[4,3-c]quinoline-8-carboxamide] the same measures were less than 1 nM, 53 and less than 100 nM.
Take `Cn1ncc2c(N)nc3cc(F)c(C(=O)N(Cc4ccc(C(F)(F)F)nn4)N4CCCC4=O)cc3c21` [Example 60, 4-amino-7-fluoro-1-methyl-N-(2-oxopyrrolidin-1-yl)-N-((6-(trifluoromethyl)pyridazin-3-yl)methyl)-1H-pyrazolo[4,3-c]quinoline-8-carboxamide]: in assay [1], the EC50 was 1 to 5 nM and the “EC50 selectivity (SDMA assay)” value stood at 58. The CC50 in assay [2] is less than 100 nM.
For `CC(=O)N(C)N(Cc1ccc(C(F)(F)F)nn1)C(=O)c1ccc2nc(N)c3cnn(C)c3c2c1` [Example 61, N′-acetyl-4-amino-N′,1-dimethyl-N-((6-(trifluoromethyl)pyridazin-3-yl)methyl)-1H-pyrazolo[4,3-c]quinoline-8-carbohydrazide] the same measures were 1 to 5 nM, 124 and 100 to 1000 nM.
For `Cn1ncc2c(N)nc3ccc(C(=O)N(Cc4ccc(C(F)(F)F)cn4)N4CCOCC4=O)cc3c21` [Example 62, 4-amino-1-methyl-N-(3-oxomorpholin-4-yl)-N-[[5-(trifluoromethyl)-2-pyridyl]methyl]pyrazolo[4,3-c]quinoline-8-carboxamide] the same measures were less than 1 nM, 94 and less than 100 nM.
For `Cn1ncc2c(N)nc3cc(Cl)c(C(=O)N(Cc4ccc(C(F)(F)F)cn4)N4CCOCC4=O)cc3c21` [Example 63, 4-amino-7-chloro-1-methyl-N-(3-oxomorpholin-4-yl)-N-[[5-(trifluoromethyl)-2-pyridyl]methyl]pyrazolo[4,3-c]quinoline-8-carboxamide] the same measures were 1 to 5 nM, 70 and less than 100 nM.
Take `Cn1ncc2c(N)nc3ccc(C(=O)N(Cc4c(F)cc(C(F)(F)F)cc4F)N4CCCCC4=O)cc3c21` [Example 64, 4-amino-N-[[2,6-difluoro-4-(trifluoromethyl)phenyl]methyl]-1-methyl-N-(2-oxo-1-piperidyl)pyrazolo[4,3-c]quinoline-8-carboxamide]: in assay [1], the EC50 is less than 1 nM and the “EC50 selectivity (SDMA assay)” value was 15. Moreover, the CC50 in assay [2] was less than 100 nM.
The like results for `Cn1ncc2c(N)nc3ccc(C(=O)N(Cc4nc5ccccc5s4)N4CCCC4=O)cc3c21` [Example 65, 4-amino-N-(1,3-benzothiazol-2-ylmethyl)-1-methyl-N-(2-oxopyrrolidin-1-yl)pyrazolo[4,3-c]quinoline-8-carboxamide] were, in that order, less than 1 nM, 149 and less than 100 nM.
In the case of `Cn1ncc2c(N)nc3ccc(C(=O)N(Cc4ccc(C(C)(C)O)nc4)N4CCCCC4=O)cc3c21` [Example 66, 4-amino-N-[[6-(1-hydroxy-1-methyl-ethyl)-3-pyridyl]methyl]-1-methyl-N-(2-oxo-1-piperidyl)pyrazolo[4,3-c]quinoline-8-carboxamide], in assay [1], the EC50 was greater than 5 nM and the “EC50 selectivity (SDMA assay)” value amounted to 281. Besides, the CC50 in assay [2] was 100 to 1000 nM.
For `COc1cc(C(F)(F)F)ccc1CN(C(=O)c1ccc2nc(N)c3cnn(C)c3c2c1)N1CCCCC1=O` [Example 67, 4-amino-N-[[2-methoxy-4-(trifluoromethyl)phenyl]methyl]-1-methyl-N-(2-oxo-1-piperidyl)pyrazolo[4,3-c]quinoline-8-carboxamide] the same measures were less than 1 nM, 25 and less than 100 nM.
The like results for `CC(=O)N(C)N(Cc1ccc(C(F)(F)F)cn1)C(=O)c1ccc2nc(N)c3ccccc3c2c1` [Example 68, N′-acetyl-6-amino-N′-methyl-N-[[5-(trifluoromethyl)-2-pyridyl]methyl]phenanthridine-2-carbohydrazide] were, in that order, 1 to 5 nM, 304 and 100 to 1000 nM.
The like results for `CC(=O)N(C)N(Cc1ccc(C(F)(F)F)cn1)C(=O)c1ccc2nc(N)c3sncc3c2c1` [Example 69, N′-acetyl-4-amino-N′-methyl-N-[[5-(trifluoromethyl)-2-pyridyl]methyl]isothiazolo[5,4-c]quinoline-8-carbohydrazide] were, in that order, 1 to 5 nM, 142 and 100 to 1000 nM.
Regarding `CC(=O)N(C)N(Cc1ccc(C(F)(F)F)cn1)C(=O)c1cc2c3c(c(N)nc2cc1F)COC3` [Example 70, N′-acetyl-4-amino-7-fluoro-N′-methyl-N-[[5-(trifluoromethyl)-2-pyridyl]methyl]-1,3-dihydrofuro[3,4-c]quinoline-8-carbohydrazide], in assay [1], the EC50 is 1 to 5 nM and the “EC50 selectivity (SDMA assay)” value stood at 11. Also, the CC50 in assay [2] is less than 100 nM.
For `CC(=O)N(C)N(Cc1ccc(C(F)(F)F)cn1)C(=O)c1ccc2nc(N)c3c(c2c1)CO[C@@H]3C` [Example 71, (3R)—N′-acetyl-4-amino-N′,3-dimethyl-N-[[5-(trifluoromethyl)-2-pyridyl]methyl]-1,3-dihydrofuro[3,4-c]quinoline-8-carbohydrazide] the same measures were 1 to 5 nM, 59 and less than 100 nM.
Take `CC(=O)N(C)N(Cc1ccc(C(F)(F)F)cn1)C(=O)c1ccc2nc(N)c3cnccc3c2c1` [Example 72, N′-acetyl-5-amino-N′-methyl-N-((5-(trifluoromethyl)pyridin-2-yl)methyl)benzo[c][2,7]naphthyridine-9-carbohydrazide]: in assay [1], the EC50 is 1 to 5 nM and the “EC50 selectivity (SDMA assay)” value is listed as 142. In assay [2], this molecule displayed a CC50 of 100 to 1000 nM.
The like results for `CN(C)N(Cc1ccc(C(F)(F)F)cn1)C(=O)c1ccc2nc(N)c3cscc3c2c1` [Example 73, 4-amino-N′,N′-dimethyl-N-((5-(trifluoromethyl)pyridin-2-yl)methyl)thieno[3,4-c]quinoline-8-carbohydrazide] were, in that order, greater than 5 nM, 39 and 100 to 1000 nM.
`CC(c1ccc(C(F)(F)F)cn1)N(C(=O)c1ccc2nc(N)c3cscc3c2c1)N(C)C` (stereo not drawn) [Example 74, 4-amino-N′,N′-dimethyl-N-(1-(5-(trifluoromethyl)pyridin-2-yl)ethyl)thieno[3,4-c]quinoline-8-carbohydrazide]: in assay [1], the EC50 is greater than 5 nM and the “EC50 selectivity (SDMA assay)” value is given as greater than 71. Also, the CC50 in assay [2] lay in the range of 100 to 1000 nM.
For `CN(C1CC1)N(Cc1ccc(C(F)(F)F)cn1)C(=O)c1ccc2nc(N)c3cnn(C)c3c2c1` [Example 75, 4-amino-N′-cyclopropyl-N′,1-dimethyl-N-((5-(trifluoromethyl)pyridin-2-yl)methyl)-1H-pyrazolo[4,3-c]quinoline-8-carbohydrazide] the same measures were less than 1 nM, 68 and less than 100 nM.
For `Nc1nc2ccc(C(=O)N(Cc3ccc(C(F)(F)F)cn3)Nc3ncccn3)cc2c2ccccc12` [Example 76, 6-amino-N′-(pyrimidin-2-yl)-N-((5-(trifluoromethyl)pyridin-2-yl)methyl)phenanthridine-2-carbohydrazide] the same measures were 1 to 5 nM, 204 and 100 to 1000 nM.
The like results for `CC(=O)N(C)N(Cc1ccc(OC(F)F)cc1F)C(=O)c1ccc2nc(N)c3cnn(C)c3c2c1` [Example 77, N′-acetyl-4-amino-N-(4-(difluoromethoxy)-2-fluorobenzyl)-N′,1-dimethyl-1H-pyrazolo[4,3-c]quinoline-8-carbohydrazide] were, in that order, less than 1 nM, 69 and less than 100 nM.
Regarding `Cn1ncc2c(N)nc3cc(F)c(C(=O)N(Cc4ccc(OC(F)F)cc4F)N4CCCC4=O)cc3c21` [Example 78, 4-amino-N-(4-(difluoromethoxy)-2-fluorobenzyl)-7-fluoro-1-methyl-N-(2-oxopyrrolidin-1-yl)-1H-pyrazolo[4,3-c]quinoline-8-carboxamide], in assay [1], the EC50 was less than 1 nM and the “EC50 selectivity (SDMA assay)” value came to 19. Besides, the CC50 in assay [2] is less than 100 nM.

For the origin of these results see patent US20240254118A1, “PRMT5 INHIBITORS AND USES THEREOF” (Gilead Sciences, Inc., priority 2022, published 2024).
